Laboratory results reported in patent publication US6767903B1, “New7α, 17α-bis-alkylated testosterone derivatives and their use in long-term therapy of androgen-dependent diseases” (Schering AG, priority 1998, dated 2004).
Read-outs that look alike come from different tables or passages of the source.

System: human prostate cancer cell line LNCaP
Test: Antiproliferation test with the human prostate cancer cell line (LNCaP)
Format: cell-based
Details: LNCaP cells; for IC50: growth stimulated by 0.1 nM R1881, 7 days, MTT readout, read-out: Antiandrogeneity IC50 in the presence of 0.1 nM of R1881; for Androgeneity at 1 μM: test compound at 1 μM, growth stimulation by 0.1 nM of R1881 was set = 100%
From the text: Antiproliferation Test with the Human Prostate Cancer Cell Line (LNCaP)
The human prostate cancer cell line LNCaP [American Type Culture Collection (ATCC)=Accession No.: CRL 1740; Horoszewicz et al., Cancer Research, 43 pp. 1809-18, 1983] was isolated from the lymph node metastasis of a prostate cancer patient. It expresses the androgen receptor and can be stimulated in growth by androgens. The androgen-mediated growth stimulation can be blocked by simultaneous administration of antiandrogens. The antiandrogenic active strength (IC50) of test compounds can be determined by dose-action correlations.
The cells are cultivated in RPMI 1640 medium with penicillin (10,000 units/l), streptomycin (100 mg/l), glutamine ([…]), 10% fetal calf serum and 0.1 nM of the synthetic androgen R1881 (Metribolone, Roussel).
Day 1: Sowing of the cells in a density of 5,000-6,000/100 μl/hole in 96-hole plates. Adding test compound (100 μl/hole doubly concentrated) to the culture medium with 0.2 nM of R1881 (yields 0.1 nM final concentration). Incubation of the cells for 72 or 96 hours at 37° C., 5% CO2, 90% relative atmospheric humidity. In the culture medium, the fetal calf serum is replaced by 5% activated carbon-treated (steroid-free) serum.
Day 3 or 4: Medium change: In each case in 50% of the medium, inclusive test compounds are replaced by fresh medium. Incubation of the cells for 96 or 72 hours at 37° C., 5% CO2, 90% relative atmospheric humity.
Day 7: Adding 25 μl of MTT solution per hole {MTT=(3[4,5-dimethylthiazol-2-yl]-2,5-diphenaltetrazolium bromide (thiazolyl blue}. Incubation is for 3 hours at 37° C., 5% CO2, 90% relative atmospheric humidity. After the removal of the supernatant, addition of 100 μl of DMSO per hole. Measurement of the optical density at […].
The antiandrogens OH-flutamide and casodex that are found in clinical practice were tested, as well as the compound EM-101 (N-butyl, N-methyl-11-(17′β-hydroxy-4′-androsten-3′-on-7′α-yl)undecanamide of WO 91/00732.

SMILES | IC50 (Homo sapiens, 168 h) [nM] | Androgeneity at 1 μM [%] | IC50 [nM]
CC(O)(CS(=O)(=O)c1ccc(F)cc1)C(=O)Nc1ccc(C#N)c(C(F)(F)F)c1 (stereo not shown) [Casodex] | 440 | 7 | 
CCCCN(C)C(=O)CCCCCCCCCC[C@@H]1CC2=CC(=O)CC[C@]2(C)[C@H]2CC[C@]3(C)[C@@H](O)CC[C@H]3[C@H]12 [EM-101, N-butyl, N-methyl-11-(17′β-hydroxy-4′-androsten-3′-on-7′α-yl)undecanamide] |  | 0 | 4440
CC12CCC(=O)C=C1CC(CCCCCCCCCC[S+]([O-])c1ccccc1)C1C2CCC2(C)C1CCC2(O)C(F)(F)C(F)(F)F (stereo not drawn) [Example 20, 17β-Hydroxy-17α-(1,1,2,2,2-pentafluoroethyl)-7α-[10-(phenylsulfinyl)decyl]androst-4-en-3-one] |  | 0 | 200
C[C@]12CCC(=O)C=C1C[C@@H](CCCCCCCCCO)[C@@H]1[C@@H]2CC[C@@]2(C)[C@H]1CC[C@]2(C)O [Example 53, 17β-Hydroxy-7α-(9-hydroxynonyl)-17α-methylandrost-4-en-3-one] | 40 | 0 | 
CC(C)(O)C(=O)Nc1ccc([N+](=O)[O-])c(C(F)(F)F)c1 [OH-flutamide] |  | 144 | > 10000
